Experimental findings from PubChem BioAssay (NCI) are described below.

Common to all, as to experiment: NCI tumour cell line growth inhibition, 48 h
Assay [1] deals with XF 498 CNS.
Assay [2] concerns KM20L2 colon.
Assay [3] concerns HOP-18 NSCLC.
Assay [4] concerns RXF-631 renal.
Assay [5] concerns DMS 273 small cell lung.
The subject of assay [6] is MDA-N.
In assay [7] the test system is DMS 114 small cell lung.
In assay [8] the test system is SNB-78 CNS.
For assay [9], the system named is M19-MEL melanoma.
The subject of assay [10] is SN12K1 renal.
Assay [11] relates to P388 leukemia.
For assay [12], the system named is P388/ADR leukemia.

Where “and” joins values, the source holds several entries; their conditions need not be identical. Identical values can stand only once.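 Assay format: 96-well plates, 48-hour exposure. The concentration for 50% growth inhibition is given as GI50. TGI is the concentration that stops growth completely.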 Bounds are passed on as bounds.

Take `CCCCCCCCCCCCCCCCSS(C)(=O)=O`: the TGI was 16.9 µM in assay [1]; over 66.1 µM in assay [2]; over 100 µM in [3]; 35.6 µM in [4]; 42.7 µM in [5]; over 100 µM in assay [6].

As to `COc1ccc(C(=C(C#N)C#N)c2ccc(OC)cc2)cc1`, the TGI in assay [7], in [2], in assay [8] and in assay [5] was over 100 µM throughout.

In the case of `CN1CCN2c3ccccc3CC(C#N)(C#N)C2C1` (stereo unspecified), the TGI in [7], in assay [2], in assay [3], in assay [8], in [4] and in [9] was over 100 µM in each case. In assay [5], this compound came in with a TGI of over 100 µM.

On to `CC(=O)O[C@H]1CC[C@@]2(C)C(=CC[C@@H]3C2CC[C@]2(C)C(=O)NC(=O)CC32)C1` (stereo partly specified), for which the TGI in assay [1], in assay [7], in assay [2], in [3], in [8] and in assay [4] was over 100 µM throughout. Further, the TGI in assay [9] and in [5] was over 100 µM throughout.

In the case of `O=C(/C=C/c1ccc[nH]1)c1ccccc1`, the TGI in [7], in [2], in assay [3], in [8], in assay [9] and in [5] was over 100 µM each time.

`COc1ccc(-c2cc(=O)c3c(OC)c(O)c(OC)cc3o2)cc1` gave a TGI in assay [6] of over 100 µM.

Consider `CC1=CC[C@@H]2[C@@H](CC[C@@]2(C)O)C(C)(C)[C@H]1CC[C@@H]1[C@@]2(C)CC[C@@H](O)C(C)(C)O[C@@H]2CC[C@]1(C)O`, for which, in assay [6], the TGI was found to be 53.2 µM.

With `CS(=O)(=O)OCCCCOS(C)(=O)=O`, the TGI in assay [7] was 250 µM; in assay [2] it was over 235 µM; in assay [10] it was 224 µM; in assay [3], over 200 µM; in assay [8], 233 µM; in [9], 230 µM. The TGI in [5] is 245 µM; in assay [11] it was 250 µM; in [6], 250 µM and > 1000 µM; in assay [12], 246 µM. Also, in assay [6], the GI50 was over 1 mM.

On to `CN1C(=O)C(C)(C)NS1(=O)=O`, for which the TGI in assay [1], in assay [7], in [2], in [8], in assay [4] and in [9] was over 100 µM throughout. In assay [5], this compound had a TGI of over 100 µM.

In turn, `O=S1(=O)OCc2ccccc21` showed a TGI in assay [6] of over 100 µM.

The compound `CN(C)C(=O)C(NCCO)c1ccccc1` (stereo unspecified) displayed a TGI in [6] of over 100 µM.

As for `CCOc1cccc2sc(N)nc12`, the TGI in assay [7], in assay [2], in [3], in assay [8], in assay [9] and in [5] was over 100 µM throughout.

`C=C(c1ccccc1)[C@@]1(O)CCCC[C@H]1NC(c1ccccc1)c1ccccc1`: the TGI in [7] came out at 22.3 µM; in [2], 43.5 µM; in [3], 35.4 µM; in assay [8], 50.7 µM; in assay [9], 28.3 µM; in [5], 27.1 µM.

As for `COc1ccc2c(c1)[n+]([O-])c(/C(C)=N/NC(N)=S)c(C)[n+]2[O-]`, the TGI in [1], in assay [7], in [2], in [3], in [8] and in assay [4] was over 100 µM each time. In addition, the TGI in [9] and in assay [6] was over 100 µM in each case.

As for `COc1cccc(-c2cc(C(=O)Nc3ccc(Cl)cc3)nc(N)n2)c1`, the TGI in assay [1], in assay [7], in [2], in assay [3], in assay [8] and in assay [9] was over 100 µM each time. In [5], this compound came in with a TGI of over 100 µM.

Take `O=C1C[C@@H]2[C@@H](C=CC23CC3)N1O`: the TGI in assay [2], in assay [3], in assay [8], in assay [9] and in assay [5] was over 100 µM throughout.

As to `S=P(C1CCCCC1)(C1CCCCC1)C(c1cccnc1)N1CCCC1` (stereo unspecified), the TGI in [6] came to 39.3 µM.

In the case of `CCOC(=O)C1Nc2ccc([N+](=O)[O-])cc2[C@H]2OCC[C@@H]12` (stereo partly specified), the TGI in [1], in [7], in assay [2], in assay [3], in [8] and in assay [4] was over 100 µM in each case. In addition, the TGI in [9] and in assay [5] was over 100 µM each time.

On to `CCCCCCN(CCCCCC)C1=CC(=O)C(=O)c2ccccc21`, for which the TGI in assay [2] is 37.6 µM; in assay [3], 29.7 µM; in [8], 51.8 µM; in assay [4], 38.3 µM; in assay [9] it was 4.99 µM; in assay [5] it was 34.7 µM.

As to `CN(C(=N)c1ccccc1)c1ccccc1`, the TGI in assay [2], in assay [3], in assay [8], in [9] and in assay [5] was over 100 µM each time.

In assay [6], `COc1ccc2c3c(ccc2c1)NC(C(=O)O)CC3` (stereo unspecified) displayed a TGI of over 100 µM.

As for `O=C(CC(O)c1cccnc1)CC(O)c1cccnc1` (stereo unspecified), the TGI in [6] is 25.5 µM.

Turning to `Nc1ncnc2c1ncn2C1OC(CO)CC1O` (stereo unspecified), the TGI in assay [6] is over 100 µM.

Consider `Nc1nc(=O)c2[nH]cnc2n1O`, for which the TGI in assay [6] was over 100 µM.

For the compound `CC12CCC(=O)N1c1cc([N+](=O)[O-])ccc1N2` (stereo unspecified), the TGI in [1], in [7], in assay [2], in assay [3], in [8] and in [4] was over 100 µM throughout. For the same compound, the TGI in [9] and in assay [5] was over 100 µM in each case.

For the compound `[O-]c1ccccc1[C-]=Nc1ccccc1O.[O-]c1ccccc1[C-]=Nc1ccccc1O.[O]=[U]=[O]`, the GI50 in [1] is 20 µM; in assay [7], 2.4 µM; in [2], 856 nM; in assay [8] it was 21.3 µM; in assay [9], 12.3 µM; in assay [5], 13.7 µM. In addition, the TGI in assay [1] is 42 µM; in assay [7], 23.2 µM; in assay [2] it was over 100 µM; in assay [8] it was 61.2 µM; in [9], 48.6 µM; in [5], 59.5 µM.

Take `COC(=O)c1ccc(CS(=O)(=O)c2ccccc2)cc1`: the TGI in [1], in assay [7], in assay [2], in assay [3], in [8] and in [4] was over 100 µM throughout. The TGI in assay [9] and in assay [5] was over 100 µM throughout.

As to `Clc1cc2nc[nH]c2cc1Cl`, the TGI in assay [1], in assay [7], in [3], in assay [8], in assay [9] and in assay [5] was over 100 µM in each case.

Take `CCOC(=O)NC(=O)c1cn(CC(=O)NCC(=O)NCC(=O)N2CCN(CCn3c(C)nc(C(N)=O)c3N)CC2)c(=O)[nH]c1=O`: the TGI in assay [1], in assay [7], in assay [2], in assay [3], in assay [8] and in assay [4] was over 100 µM each time. In assay [9], this compound returned a TGI of over 100 µM.

Consider `O=c1/c(=C/c2ccccc2O)sc2nc3ccccc3n12`, for which the TGI in assay [7] was 47.5 µM; in assay [2], over 100 µM; in assay [8], over 100 µM; in assay [4] it was over 100 µM; in assay [9] it was over 100 µM; in assay [5], over 100 µM.

Take `Clc1cc(Cl)cc(C2SCc3nc4ccccc4n32)c1` (stereo unspecified): the TGI is 44.7 µM in assay [7]; 67.8 µM in [3]; 60.1 µM in [8]; 32.9 µM in assay [4]; 22.4 µM in assay [5].

Take `OCC(O)C(O)C(O)c1nn[nH]n1` (stereo unspecified): the TGI in assay [7], in assay [8], in [9] and in assay [5] was over 100 µM in each case.

On to `COC1=CC(=O)c2c(O)c3c(c(O)c2C1=O)OC1(Oc2c(cc4cc(C)oc(=O)c4c2O)CC1O)C3O` (stereo unspecified), for which the TGI in assay [6] turned out to be 42.9 µM.

As for `CC(C)(C)c1cc(O)c2c(c1O)C(=O)CCC2`, the TGI in assay [1] was 71.2 µM; in assay [7] it was 69.1 µM; in assay [2], over 100 µM; in assay [3], over 100 µM; in assay [8] it was over 100 µM; in [4] it was over 100 µM. For the same compound, the TGI is 84.9 µM in [9] and over 100 µM in assay [5].

Compound `NNC(=O)C(O)C(O)C(O)CO` (stereo unspecified) yielded a TGI in assay [6] of over 100 µM.

As for `CO[C@H](C(=O)O[C@H]1C(=O)N2CCC3CCC1C32C)c1ccccc1` (stereo partly specified), the TGI in assay [1], in assay [7], in [2], in assay [3], in [8] and in assay [9] was over 100 µM in each case.

`Cc1cc(Cl)ccc1NC(=O)C1C(=O)C(=O)N(c2ccc(Cl)cc2C)C1=O` (stereo unspecified): the TGI in [7] was 68.1 µM; in assay [2] it was over 100 µM; in assay [8], over 100 µM; in assay [4], over 100 µM; in [9], over 100 µM; in assay [5], over 100 µM.

As for `C/C(=N\NC(=O)C[n+]1ccccc1)c1sc(-c2nc(C)c(/C(C)=N/NC(=O)C[n+]3ccccc3)s2)nc1C`, the TGI in [7], in [2], in [8] and in assay [9] was over 100 µM in each case.

In the case of `CC[C@@]1(O)C(=O)OCc2c1cc1n(c2=O)Cc2cc3c([N+](=O)[O-])c(O)ccc3nc2-1`, the GI50 in assay [1] was 1.09 µM; in assay [7], 0.0601 µM; in assay [2] it was 1970 nM; in [3], 758 nM; in assay [8] it was 6.6 µM; in assay [9], 0.655 µM. In addition, the GI50 in [5] was 0.0605 µM. Also, the TGI is 9.25 µM in assay [1]; 1.2 µM in assay [7]; 38.4 µM in assay [2]; over 100 µM in [3]; over 100 µM in assay [8]; 11.9 µM in assay [9]. In assay [5], this compound had a TGI of 2.02 µM.

As to `O=C1C2c3[nH]c4ccccc4c3C3CCC(c4ccccc4)CC3C2C(=O)N1c1ccccc1` (stereo unspecified), the TGI in [1], in assay [7], in [3], in assay [8], in assay [9] and in assay [5] was over 100 µM each time.

`CC1OC(OC23C(=O)CC(C)(O)CC2(O)C=CC2=C3C(=O)c3ccc(C4CC(OC5CCC(OC6CC(O)C(O)C(C)O6)C(C)O5)C(O)C(C)O4)c(O)c3C2=O)CCC1O` (stereo unspecified): the TGI in [1] was 32.9 µM and 32.1 µM; in [7], 31 µM and 21.2 µM; in assay [2], 36.3 µM and 34.5 µM; in assay [3] it was 31.3 µM and 30.8 µM; in assay [8], 35.2 µM and 34.4 µM; in [4] it was 35.6 µM and 26.5 µM. In assay [5], the TGI was 36.3 µM and 10 µM. Further, the GI50 is 16.5 µM and 8.11 µM in assay [7]; 20.5 µM and 3.18 µM in assay [5].

Consider `Cc1ccc2oc(=O)cc(CC(=O)O)c2c1`, for which the TGI in [1] was 93.1 µM; in [2], over 100 µM; in assay [3], over 100 µM; in [4] it was over 100 µM; in assay [9] it was over 100 µM; in assay [5] it was over 100 µM.
